Entries after “also recorded” stand apart in the source; their conditions may differ.
Tests used:
[1] = tested on: native bovine MBP protein; experiment: ELISA cross reaction of sera with native MBP protein; format: in vivo; parameters: key to Cross reaction with native MBP / Ab Cross reaction with native MBP: −: negative; +/−: very weak; +: weak; ++: moderate; +++: strong; conditions: for Ab Cross reaction with native MBP: Table 3, peptide analogues emulsified in complete Freund's adjuvant; for cross reaction of sera with native MBP protein (in words): peptide conjugated to reduced mannan, 1/200 and 1/1,600 sera dilution; for Cross reaction with native MBP: Table 2, peptide analogues conjugated to reduced mannan-KLH
Method: Blood was collected and sera isolated from mice prior to and 2 weeks after immunization. MBP83-99 peptides conjugated to BSA were coated onto polyvinyl chloride (PVC) microtiter plates at 10 μg/ml or with 2.5 μg/ml native MBP bovine protein in 0.2 M NaHCO3 buffer, pH 9.6, overnight at 4′C and non-specific binding was blocked with 2% BSA for 1.0 hour at room temperature. After washing (0.05% Tween 20/PBS), serial dilutions of sera were added and incubated for a further 2.0 hours at room temperature. The plates were washed and bound antibody was detected using HRP-conjugated sheep anti-mouse antibody (1:1000 in PBS) (Amersham, UK) and developed using 2,2″-azino-di(3-ethylbenzthiazoline) sulphonate (ABTS) (Sigma, UK). Absorption at 405 nm was recorded using an ELISA microplate reader.

[2] = tested on: IFN-γ production induced by the native MBP83-99 peptide; experiment: In vitro IFN-γ antagonism ELISpot; format: cell-based, SJL/J mice; parameters: key to Antagonism: −: negative; +/−: very weak; +: weak; ++: moderate; +++: strong; conditions: for Antagonism: Table 3, complete Freund's adjuvant
Method: Mice were immunized with native MBP83-99 peptide emulsified in CFA, and spleen cells were isolated 25 days later. The ability of cyclic mutant MBP83-99 peptide analogues to antagonize IFN-γ production was assessed by ELISpot analysis. The native MBP83-99 peptide was added together with cyclic mutated MBP83-99 analogues, and % IFN-γ inhibition is shown.
ELISpot assays are an ex vivo 18 h assay that measures IFN-γ secretion by T cells. […] The sensitivity of the assay is higher than limiting dilution analysis, FACscan analysis, or ELISA methods and can reliably detect precursor frequencies of antigen specific effectors of 1 in every 0.5 million cells. It is therefore an appropriate method to detect antigen specific cells. Here, we measured IFN-γ production generated by the native MBP83-99 peptide and assessed the % inhibition (antagonize) of IFN-γ produced in the presence of mutant peptide analogues.
Cyclic head-to-tail MBP83-99 single and double mutant analogues were tested for their ability to inhibit IFN-γ responses induced by the native agonist MBP83-99 peptide. Mice were immunized with the native agonist MBP83-99 peptide emulsified in complete Freund's adjuvant (CFA). Spleen cells were isolated 25 days later, and the ability of cyclic peptides to inhibit (antagonize) IFN-γ production was assessed in in vitro antagonism ELISpot assays (FIG. 8). The results are shown as % IFN-γ inhibition of each cyclic mutant peptide analogue, in comparison to the native MBP83-99 peptide alone. All cyclic peptide analogues inhibited IFN-γ production between 30% and 90%. […] However, the single mutant analogue cyclo(83-99)[A^91]MBP83-99 was the most efficient in inhibiting IFN-γ production induced by the native MBP83-99 peptide, up to 92%. On the basis of the ability of cyclo(83-99)[A^91]MBP83-99 peptide to inhibit (antagonize) IFN-γ production by T cells, we chose to examine its in vivo efficacy in SJL/J mice after emulsification in CFA or conjugation to reduced mannan.

[3] = tested on: spleen cells; experiment: T cell proliferation assay ([3H]-thymidine uptake); format: in vivo, SJL/J mice; parameters: key to Proliferation / Proliferation cross reaction: −: negative; +/−: very weak; +: weak; ++: moderate; +++: strong; conditions: for Proliferation cross reaction: Table 3, complete Freund's adjuvant; for proliferation of MBP83-99 specific T cells to recall analogue (in words): mice immunized with agonist MBP83-99 in CFA; for Proliferation: Table 2, peptide analogues conjugated to reduced mannan-KLH
Method: Spleen cells from immunized SJL/J mice were isolated 14 days after immunization and assessed by T cell proliferation assay. 1×10^5 spleen cells in 100 μl culture media were seeded into 96 U-bottom plates and incubated for 1-6 days at 37° C. in the presence of recall peptide (10 μg/ml), ConA (positive control) or no peptide (negative control). Proliferation was assessed by adding 1 μCi of [^3H]-thymidine per well to one plate per time point (days 1-6). Cells were incubated for a further 6 h before harvesting onto glass fiber filters. [^3H] uptake was measured using a β-scintillation counter (Top Count Gamma Counter, Packard, USA).
Proliferation assays were used to detect the level of antigen specific T cells by measuring the [3H]thymidine uptake of T cells proliferating in the presence of peptides on days 1-6. Spleen cells from mice immunized with linear agonist MBP83-99 peptide were isolated 28 days after immunization and assessed by T cell proliferation assay. T cells proliferated to MBP83-99 peptide, reaching a peak by day 5 of up to 25 000 cpm (FIG. 9D). In addition, the MBP83-99 specific T cells cross-reacted with linear [A^91]MBP83-99 and mutant cyclo(83-99)[A^91]MBP83-99 peptide analogues (FIG. 9D). The cyclo(83-99)[A^91]MBP83-99 peptide proliferated similarly to linear [A^91]MBP83-99 peptide, reaching a peak on day 5 (FIG. 9D). ConA (internal control) yielded proliferation of more than 75 000 cpm peaked on day 2 and was excluded from the figures, and no peptide (cells alone) was used as background negative control.

| Compound | Ab Cross reaction with native MBP [1] | cross reaction of sera with native MBP protein (in words) [1] | Antagonism [2] | Proliferation cross reaction [3] | proliferation of MBP83-99 specific T cells to recall analogue (in words) [3] | Cross reaction with native MBP [1] | Proliferation [3] | T cell proliferation to recall peptide (in words) ([3]; immunization with reduced mannan-KLH-peptide) | T cell proliferation, peak ([3]; mice immunized with linear MBP83-99 (CFA), spleen cells 28 days, recall peptide, peak by day 5) | cross reaction of sera with native MBP protein (in words) ([1]; listed as [A^91, R^96]MBP83-99) | % IFN-γ inhibition ([2]; spleen cells of mice immunized with native MBP83-99 in CFA, 25 days, cyclic analogue added together with native MBP83-99) |
| --- | --- | --- | --- | --- | --- | --- | --- | --- | --- | --- | --- |
| CC[C@H](C)[C@@H]1NC(=O)[C@H](CC(N)=O)NC(=O)[C@H](CCCCN)NC(=O)[C@H](Cc2ccccc2)NC(=O)[C@H](Cc2ccccc2)NC(=O)[C@H](Cc2c[nH]cn2)NC(=O)[C@H](C(C)C)NC(=O)[C@H](C(C)C)NC(=O)[C@@H]2CCCN2C(=O)[C@H](CC(N)=O)NC(=O)[C@H](CCC(=O)O)NC(=O)[C@@H]2CCCN2C(=O)[C@H]([C@@H](C)O)NC(=O)[C@H](CCCNC(=N)N)NC(=O)[C@@H]2CCCN2C(=O)[C@H]([C@@H](C)O)NC(=O)[C@H](C(C)C)NC1=O [cyclo(83-99)MBP83-99, cyclo(83-99)E N P V V H F F K N I V T P R T P] | − | highly cross reacted |  |  |  |  |  |  |  |  |  |
| E N P V V H F F A N I V T P R T P (ENPVVHFFANIVTPRTP) [[A^91]MBP83-99] | ++ | reacted moderately; also recorded: cross reacted weakly | ++ | ++ | cross-reacted | + |  |  |  |  |  |
| E N P V V H F F E N I V T P R T P (ENPVVHFFENIVTPRTP) [[E^91]MBP83-99] | − | reacted moderately; also recorded: cross reacted weakly | ++ | ++ |  | + |  |  |  |  |  |
| E N P V V H F F F N I V T P R T P (ENPVVHFFFNIVTPRTP) [[F^91]MBP83-99] | − | did not react | ++ | ++ |  | − | +++ | strong |  |  |  |
| E N P V V H F F K N I V T P R T P (ENPVVHFFKNIVTPRTP) [MBP83-99, reference compound] | − | highly cross reacted; also recorded: cross reactive |  |  |  | +++ |  |  | up to 25 000 cpm |  |  |
| E N P V V H F F R N I V T A R T P (ENPVVHFFRNIVTARTP) [[R^91, A^96]MBP83-99] | − | cross reactive | ++ | +/− | weakly proliferated | +++ |  |  |  | highly cross reacted |  |
| E N P V V H F F Y N I V T P R T P (ENPVVHFFYNIVTPRTP) [[Y^91]MBP83-99] | − | did not cross react | ++ | +/− | weakly proliferated | − | +/− |  |  |  |  |
| cyclo(83-99)E N P V V H F F A N I V T P R T P (ENPVVHFFANIVTPRTP; cyclised or stapled) [cyclo(83-99)[A^91]MBP83-99] | − | reacted moderately | ++ | ++ | cross-reacted | + |  |  |  |  | up to 92% |
